The record followed here is US20220289732A1, “HETEROCYCLIC WDR5 INHIBITORS AS ANTI-CANCER COMPOUNDS” (NOVARTIS AG, priority 2019, published 2022).

Read-outs that look alike come from different tables or passages of the source.

Experiment [1] addresses WDR5 (Homo sapiens, UniProt P61964). Description: WDR5 HTRF binding assay. The note with it: read-out: (a) WDR5 HTRF Pep Val v.1[Inhibitor/IC50]Qualified AC50. The procedure, abridged:
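6 nM WDR5 and 20 nM biotin-MLL1 WIN peptide (3762-3773) were incubated with compound (12-point, 3-fold dilutions) in pH 7.5 Hepes/NaCl/DTT buffer for 20 min at rt. Streptavidin-APC plus anti-His-Eu were then added for 1 hr, with HTRF read at 665/615. IC50 was fit from control-normalized activity; the counter assay used 15 nM biotin-PEG-His peptide.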
(In general: In TR-FRET formats the signal depends on donor and acceptor labels being close together.)

Experiment [2] has as its target wild type MLL1 four-member complex (MLL1-4C) (Homo sapiens, UniProt P61964). Nature of the experiment: MLL1 LC-MS assay (SAH production). In kind it is biochemical. To be noted: read-out: (b) MLL LCMS Peptide Val.v.1 Qualified AC50. The procedure, abridged:
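MLL1-4C (30 nM final) was preincubated 20 min with compound (3-fold dilutions, 8 or 12 points) and SAM in Tris-HCl pH 8.0 buffer. H3K4me0 peptide (histone H3[1-21]-biotin) was then added, giving final 2.5 μM SAM and 10 μM substrate, and reactions ran 120 min at rt. After TFA/d4-SAH quench, SAH was quantified by LC-MS/MS and IC50 fitted from control-normalised activity.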

Experiment [3] relates to MV4-11 cells. Description: MV4-11 6-day cell growth CTG (CellTiter-Glo) assay. The note with it: 6 days, read-out: (c) MLL/WDR5 cell proliferation assay//MLL/WDR5 proliferation MV4:11 Qualified AC50. In kind it is cell-based. The procedure, abridged: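 Exponentially growing MV4-11 AML cells (RPMI 1640, 10% FBS) seeded at 300 cells/well with 12-point 1:3 compound dilutions, top final concentration 50 μM. Viability read by CellTiter-Glo luminescence after 6 days at 37° C; % inhibition vs DMSO-only wells fitted to dose-response for IC50.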

As for `CCOc1cc([C@@H](C)N2CCc3c(cc(Cn4ccnc4NC)cc3C3CC3)C2=O)ncc1C#N` [Example 82, (R)-6-(1-(5-cyclopropyl-7-((2-(methylamino)-1H-imidazol-1-yl)methyl)-1-oxo-3,4-dihydroisoquinolin-2(1H)-yl)ethyl)-4-ethoxynicotinonitrile], the IC50 in experiment [1] is 10 to 1000 nM. In addition, the AC50 fell in the range of 10 to 1000 nM in experiment [2] and 10 to 1000 nM in experiment [3] (Homo sapiens, MV4-11, 144 h).
In the case of `CCOc1cc([C@H](C)N2CCc3c(cc(CCN(C)CC)cc3-c3ccc(N)nc3Cl)C2=O)ncc1C#N` [Example 178, (S)-6-(1-(5-(6-amino-2-chloropyridin-3-yl)-7-(2-(ethyl(methyl)amino)ethyl)-1-oxo-3,4-dihydroisoquinolin-2(1H)-yl)ethyl)-4-ethoxynicotinonitrile], in experiment [1], the IC50 is less than 10 nM. Moreover, the AC50 lay in the range of 10 to 1000 nM in experiment [2] and 10 to 1000 nM in experiment [3] (Homo sapiens, MV4-11, 144 h).
For the molecule `CCOc1cc(CN2CCc3c(cc(Cn4ccnc4NC)cc3C3CC3)C2=O)cnc1C#N` [Example 84, 5-((5-cyclopropyl-7-((2-(methylamino)-1H-imidazol-1-yl)methyl)-1-oxo-3,4-dihydroisoquinolin-2(1H)-yl)methyl)-3-ethoxypicolinonitrile], the IC50 in experiment [1] fell in the range of 10 to 1000 nM. In addition, the AC50 was 10 to 1000 nM in experiment [2] and 10 to 1000 nM in experiment [3] (Homo sapiens, MV4-11, 144 h).
With `CCOc1cc([C@H](C)N2CCc3c(cc(CCN(C)CCO)cc3-c3ccc(F)nc3C)C2=O)ncc1C#N` [Example 252], the IC50 in experiment [1] is 10 to 1000 nM. In addition, the AC50 in experiment [2] is 10 to 1000 nM; in experiment [3] (Homo sapiens, MV4-11, 144 h), 10 to 1000 nM.
Regarding `CCOc1cc([C@H](C)N2CCc3c(cc(CCN4C[C@@H](O)[C@H]4C)cc3-c3ccc(N)nc3C)C2=O)ncc1C#N` [Example 219], the IC50 in experiment [1] was less than 10 nM. The AC50 in experiment [2] is 10 to 1000 nM; in experiment [3] (Homo sapiens, MV4-11, 144 h) it was 10 to 1000 nM.
Turning to `CCOc1cc([C@H](C)N2CCc3c(cc(CCN(C)CC)cc3-c3ccnc(F)c3C)C2=O)ncc1C#N` [Example 117, (S)-4-ethoxy-6-(1-(7-(2-(ethyl(methyl)amino)ethyl)-5-(2-fluoro-3-methylpyridin-4-yl)-1-oxo-3,4-dihydroisoquinolin-2(1H)-yl)ethyl)nicotinonitrile], the IC50 in experiment [1] was less than 10 nM. Besides, the AC50 in experiment [2] was 10 to 1000 nM; in experiment [3] (Homo sapiens, MV4-11, 144 h), 10 to 1000 nM.
For `CCOc1cc([C@H](C)N2CCc3c(cc(Cn4ccnc4C)cc3-c3nn(C)nc3C)C2=O)ncc1C#N` [Example 290], in experiment [1], the IC50 was less than 10 nM. Moreover, the AC50 is 10 to 1000 nM in experiment [2] and 10 to 1000 nM in experiment [3] (Homo sapiens, MV4-11, 144 h).
Turning to `CCOc1cc([C@H](C)N2CCc3c(cc(Cn4ccnc4C)cc3-c3cc(C(F)F)cnc3C)C2=O)ncc1C#N` [Example 282], the IC50 in experiment [1] is less than 10 nM. In addition, the AC50 in experiment [2] fell in the range of 10 to 1000 nM; in experiment [3] (Homo sapiens, MV4-11, 144 h), 10 to 1000 nM.
Turning to `CCOc1cc([C@H](C)N2CCc3c(cc(CCN(C)CC)cc3-c3cn(C)c(=O)cc3C(F)(F)F)C2=O)ncc1F` [Example 204, (S)-2-(1-(4-ethoxy-5-fluompyridin-2-yl)ethyl)-7-(2-(ethyl(methyl)amino)ethyl)-5-(1-methyl-6-oxo-4-(trifluoromethyl)-1,6-dihydropyridin-3-yl)-3,4-dihydroisoquinolin-1(2H)-one], the IC50 in experiment [1] was 10 to 1000 nM. The AC50 in experiment [2] and in experiment [3] was 10 to 1000 nM throughout.
For `CCOc1cc(C(C)N2CCc3c(cc(CCN(C)CC)cc3-c3cc(Cl)cnc3C)C2=O)ncc1C#N` (stereo not drawn) [Example 197, 6-(1-(5-(5-chloro-2-methylpyridin-3-yl)-7-(2-(ethyl(methyl)amino)ethyl)-1-oxo-3,4-dihydroisoquinolin-2(1H)-yl)ethyl)-4-ethoxynicotinonitrile], the IC50 in experiment [1] was in the range of 10 to 1000 nM. In addition, the AC50 fell in the range of 10 to 1000 nM in experiment [2] and 10 to 1000 nM in experiment [3] (Homo sapiens, MV4-11, 144 h).
As for `CCOc1cc(C(C)N2CCc3c(cc(CCN(C)CC)cc3-c3ccc(N)nc3C(F)F)C2=O)ncc1C#N` (stereo not drawn) [Example 200, 6-(1-(5-(6-amino-2-(difluoromethyl)pyridin-3-yl)-7-(2-(ethyl(methyl)amino)ethyl)-1-oxo-3,4-dihydroisoquinolin-2(1H)-yl)ethyl)-4-ethoxynicotinonitrile], the IC50 in experiment [1] lay in the range of 10 to 1000 nM. The AC50 lay in the range of 10 to 1000 nM in experiment [2] and 10 to 1000 nM in experiment [3] (Homo sapiens, MV4-11, 144 h).
In the case of `CCOc1cc([C@H](C)N2CCc3c(cc(CCN(C)CC)cc3-c3c[nH]nc3C)C2=O)ncc1C#N` [Example 116, (S)-4-ethoxy-6-(1-(7-(2-(ethyl(methyl)amino)ethyl)-5-(3-methyl-1H-pyrazol-4-yl)-1-oxo-3,4-dihydroisoquinolin-2(1H)-yl)ethyl)nicotinonitrile], the IC50 in experiment [1] is less than 10 nM. Further, the AC50 fell in the range of 10 to 1000 nM in experiment [2] and 10 to 1000 nM in experiment [3] (Homo sapiens, MV4-11, 144 h).
For `CCOc1cc([C@H](C)N2CCc3c(cc(Cn4ccnc4C)cc3-c3nc(C)nn3C)C2=O)ncc1C#N` (single isomer, unassigned) [Example 264], the IC50 in experiment [1] is less than 10 nM. Further, the AC50 was in the range of 10 to 1000 nM in experiment [2] and 10 to 1000 nM in experiment [3] (Homo sapiens, MV4-11, 144 h).
As for `CNc1nccn1Cc1cc(CN(C)C2CC2)c2c(c1)C(=O)N([C@@H](C)c1cnc(F)c(OC)c1)CC2` [Example 15, (S)-5-((cyclopropyl(methyl)amino)methyl)-2-(1-(6-fluoro-5-methoxypyridin-3-yl)ethyl)-7-((2-(methylamino)-1H-imidazol-1-yl)methyl)-3,4-dihydroisoquinolin-1(2H)-one], in experiment [1], the IC50 lay within 10 to 1000 nM. For the same molecule, the AC50 in experiment [2] lay within 10 to 1000 nM; in experiment [3] (Homo sapiens, MV4-11, 144 h) it was 10 to 1000 nM.
Turning to `CCOc1cc([C@H](C)N2CCc3c(cc(Cn4ccnc4C)cc3-c3cn(C(F)F)nc3C)C2=O)ncc1C#N` [Example 286], the IC50 in experiment [1] was less than 10 nM. Besides, the AC50 in experiment [2] was 10 to 1000 nM; in experiment [3] (Homo sapiens, MV4-11, 144 h) it was less than 10 nM.
Consider `CCOc1cc([C@H](C)N2CCc3c(cc(CCN(C)CC)cc3-c3ccn(C)c(=O)c3C)C2=O)ncc1C#N` [Example 161, (S)-6-(1-(5-(1,3-dimethyl-2-oxo-1,2-dihydropyridin-4-yl)-7-(2-(ethyl(methyl)amino)ethyl)-1-oxo-3,4-dihydroisoquinolin-2(1H)-yl)ethyl)-4-ethoxynicotinonitrile], for which the IC50 in experiment [1] was less than 10 nM. Also, the AC50 is 10 to 1000 nM in experiment [2] and 10 to 1000 nM in experiment [3] (Homo sapiens, MV4-11, 144 h).
As to `CCOc1cc([C@H](C)N2CCc3c(cc(CCN4C[C@@H](O)[C@H]4C)cc3-c3cc(C)ncc3C)C2=O)ncc1C#N` [Example 221], the IC50 in experiment [1] was less than 10 nM. For the same molecule, the AC50 in experiment [2] lay in the range of 10 to 1000 nM; in experiment [3] (Homo sapiens, MV4-11, 144 h), 10 to 1000 nM.
For `CCOc1cc([C@H](C)N2CCc3c(cc(Cn4ccnc4C)cc3-c3cn(C)nc3C)C2=O)ncc1C(N)=O` (single isomer, unassigned) [Example 268], the IC50 in experiment [1] is less than 10 nM. The AC50 in experiment [2] fell in the range of 10 to 1000 nM; in experiment [3] (Homo sapiens, MV4-11, 144 h), 10 to 1000 nM.
`CCOc1cc([C@H](C)N2CCc3c(cc(CCN(C)CC(C)O)cc3-c3cn(C)c(=O)cc3Cl)C2=O)ncc1C#N` (stereo partly drawn) [Example 239]: the IC50 in experiment [1] is less than 10 nM. The AC50 in experiment [2] is 10 to 1000 nM; in experiment [3] (Homo sapiens, MV4-11, 144 h), 10 to 1000 nM.
On to `CCOc1cc([C@H](C)N2CCc3c(cc(CCN(C)CCF)cc3-c3cc(C)ncc3C)C2=O)ncc1C#N` [Example 254], for which the IC50 in experiment [1] is 10 to 1000 nM. For the same molecule, the AC50 in experiment [2] is 10 to 1000 nM; in experiment [3] (Homo sapiens, MV4-11, 144 h), 10 to 1000 nM.
As to `CCOc1cc([C@H](C)N2CCc3c(cc(CCN4CC(F)C4)cc3-c3cn(C)c(=O)cc3C(F)(F)F)C2=O)ncc1C#N` [Example 249], the IC50 in experiment [1] lay within 10 to 1000 nM. The AC50 in experiment [2] lay in the range of 10 to 1000 nM; in experiment [3] (Homo sapiens, MV4-11, 144 h), 10 to 1000 nM.
